Species: Rattus norvegicus
Assay: DrugMatrix - Regimen: Daily Repeat
Format: toxicity, organism-based, Sprague-Dawley
Set-up: regimen Daily Repeat, gender Male, age 6-8 weeks
Conditions: in vivo, po, route oral GAVAGE, vehicle 100 % WATER; for ABSOLUTE BASOPHIL / ABSOLUTE EOSINOPHIL / ABSOLUTE LYMPHOCYTE / ABSOLUTE MONOCYTE / ABSOLUTE SEGMENTED NEUTROPHIL / BASOPHIL / EOSINOPHIL / ERYTHROCYTE COUNT / HEMATOCRIT / HEMOGLOBIN / LEUKOCYTE COUNT / LYMPHOCYTE / MEAN CORPUSCULAR HEMOGLOBIN / MEAN CORPUSCULAR HEMOGLOBIN CONCENTRATION / MEAN CORPUSCULAR VOLUME / MONOCYTE / NEUTROPHIL / NUCLEATED RED BLOOD CELLS / PLATELET COUNT: tissue Blood; for ALANINE AMINOTRANSFERASE / ALBUMIN / ALKALINE PHOSPHATASE / ASPARTATE AMINOTRANSFERASE / BLOOD UREA NITROGEN / CARBON DIOXIDE / CHLORIDE / CHOLESTEROL / CREATINE PHOSPHOKINASE / CREATININE / GLUCOSE / LACTATE DEHYDROGENASE / LIPASE / PHOSPHORUS / POTASSIUM / SODIUM / TOTAL BILIRUBIN / TOTAL PROTEIN / URIC ACID: tissue Plasma
[1] = 0 mg/kg, 72 h, dose level Control, time 3 day
[2] = 0 mg/kg, 120 h, dose level Control, time 5 day
[3] = 500 mg/kg, 72 h, dose level Low, time 3 day

## NCCCCCC(=O)O [AMINOCAPROIC ACID]
[1]
  ABSOLUTE BASOPHIL: 0 CELLS/uL
  ABSOLUTE EOSINOPHIL: 40 CELLS/uL
  ABSOLUTE LYMPHOCYTE: 13599.5 CELLS/uL
  ABSOLUTE MONOCYTE: 239.33 CELLS/uL
  ABSOLUTE SEGMENTED NEUTROPHIL: 1021.17 CELLS/uL
  BASOPHIL: 0%
  EOSINOPHIL: 0.33%
  ERYTHROCYTE COUNT: 5.71 x10E6/uL
  HEMATOCRIT: 36.35%
  HEMOGLOBIN: 14.05 G/DL
  LEUKOCYTE COUNT: 14.9 x10E3/uL
  LYMPHOCYTE: 91%
  MEAN CORPUSCULAR HEMOGLOBIN: 24.62 pg
  MEAN CORPUSCULAR HEMOGLOBIN CONCENTRATION: 38.65 G/DL
  MEAN CORPUSCULAR VOLUME: 63.7 fL
  MONOCYTE: 1.5%
  NEUTROPHIL: 7.17%
  NUCLEATED RED BLOOD CELLS: 0.33 /100WBC
  PLATELET COUNT: 1225.5 x10E3/uL
  ALANINE AMINOTRANSFERASE: 48.5 u/L
  ALBUMIN: 4.18 G/DL
  ALKALINE PHOSPHATASE: 390.83 u/L
  ASPARTATE AMINOTRANSFERASE: 89 u/L
  BLOOD UREA NITROGEN: 14.83 mg/dL
  CARBON DIOXIDE: 24.83 mmol/L
  CHLORIDE: 100.83 MEQ/L
  CHOLESTEROL: 72.5 mg/dL
  CREATINE PHOSPHOKINASE: 503 u/L
  CREATININE: 0.2 mg/dL
  GLUCOSE: 163 mg/dL
  LACTATE DEHYDROGENASE: 316.83 u/L
  LIPASE: 9.83 u/L
  PHOSPHORUS: 11.57 mg/dL
  POTASSIUM: 6.16 MEQ/L
  SODIUM: 142.62 MEQ/L
  TOTAL BILIRUBIN: 0.2 mg/dL
  TOTAL PROTEIN: 5.8 G/DL
  URIC ACID: 1.65 mg/dL
[2]
  ABSOLUTE BASOPHIL: 0 CELLS/uL
  ABSOLUTE EOSINOPHIL: 21 CELLS/uL
  ABSOLUTE LYMPHOCYTE: 14288.5 CELLS/uL
  ABSOLUTE MONOCYTE: 205.33 CELLS/uL
  ABSOLUTE SEGMENTED NEUTROPHIL: 968.5 CELLS/uL
  BASOPHIL: 0%
  EOSINOPHIL: 0.17%
  ERYTHROCYTE COUNT: 5.83 x10E6/uL
  HEMATOCRIT: 36.53%
  HEMOGLOBIN: 14.4 G/DL
  LEUKOCYTE COUNT: 15.48 x10E3/uL
  LYMPHOCYTE: 92%
  MEAN CORPUSCULAR HEMOGLOBIN: 24.72 pg
  MEAN CORPUSCULAR HEMOGLOBIN CONCENTRATION: 39.43 G/DL
  MEAN CORPUSCULAR VOLUME: 62.68 fL
  MONOCYTE: 1.33%
  NEUTROPHIL: 6.5%
  NUCLEATED RED BLOOD CELLS: 0.17 /100WBC
  PLATELET COUNT: 1280.5 x10E3/uL
  ALANINE AMINOTRANSFERASE: 50 u/L
  ALBUMIN: 4.28 G/DL
  ALKALINE PHOSPHATASE: 380.17 u/L
  ASPARTATE AMINOTRANSFERASE: 82.67 u/L
  BLOOD UREA NITROGEN: 15.33 mg/dL
  CARBON DIOXIDE: 27.17 mmol/L
  CHLORIDE: 100.33 MEQ/L
  CHOLESTEROL: 60.67 mg/dL
  CREATINE PHOSPHOKINASE: 441.5 u/L
  CREATININE: 0.16 mg/dL
  GLUCOSE: 146 mg/dL
  LACTATE DEHYDROGENASE: 189.33 u/L
  LIPASE: 9.17 u/L
  PHOSPHORUS: 11.67 mg/dL
  POTASSIUM: 6.86 MEQ/L
  SODIUM: 142.33 MEQ/L
  TOTAL BILIRUBIN: 0.2 mg/dL
  TOTAL PROTEIN: 6.12 G/DL
  URIC ACID: 1.82 mg/dL
[3]
  ABSOLUTE BASOPHIL: 0 CELLS/uL
  ABSOLUTE EOSINOPHIL: 0 CELLS/uL
  ABSOLUTE LYMPHOCYTE: 14688.33 CELLS/uL
  ABSOLUTE MONOCYTE: 111.67 CELLS/uL
  ABSOLUTE SEGMENTED NEUTROPHIL: 1900 CELLS/uL
  BASOPHIL: 0%
  EOSINOPHIL: 0%
  ERYTHROCYTE COUNT: 6.18 x10E6/uL
  HEMATOCRIT: 38.13%
  HEMOGLOBIN: 14.43 G/DL
  LEUKOCYTE COUNT: 16.7 x10E3/uL
  LYMPHOCYTE: 87.67%
  MEAN CORPUSCULAR HEMOGLOBIN: 23.37 pg
  MEAN CORPUSCULAR HEMOGLOBIN CONCENTRATION: 37.87 G/DL
  MEAN CORPUSCULAR VOLUME: 61.8 fL
  MONOCYTE: 0.67%
  NEUTROPHIL: 11.67%
  NUCLEATED RED BLOOD CELLS: 0.33 /100WBC
  PLATELET COUNT: 1460 x10E3/uL
  ALANINE AMINOTRANSFERASE: 62 u/L
  ALBUMIN: 4.23 G/DL
  ALKALINE PHOSPHATASE: 425.33 u/L
  ASPARTATE AMINOTRANSFERASE: 90.33 u/L
  BLOOD UREA NITROGEN: 16.67 mg/dL
  CARBON DIOXIDE: 27.67 mmol/L
  CHLORIDE: 100.33 MEQ/L
  CHOLESTEROL: 70 mg/dL
  CREATINE PHOSPHOKINASE: 270.33 u/L
  CREATININE: 0.23 mg/dL
  GLUCOSE: 150.67 mg/dL
  LACTATE DEHYDROGENASE: 189.67 u/L
  LIPASE: 9.33 u/L
  PHOSPHORUS: 11.87 mg/dL
  POTASSIUM: 7.16 MEQ/L
  SODIUM: 144.07 MEQ/L
  TOTAL BILIRUBIN: 0.27 mg/dL
  TOTAL PROTEIN: 5.93 G/DL
  URIC ACID: 1.67 mg/dL

Reference: ChEMBL document CHEMBL3885881, “DrugMatrix”
